According to patent US20230077362A1 (CORTEVA AGRISCIENCE LLC, priority 2019, published 2023):
Where two headings read alike, the source gives them in different places.

Tests used:
Type in all cases: in vivo
[1] = test system: Green Peach Aphid ("GPA") (Myzus persicae), wingless adult and nymph stages; experiment: Bioassay on green peach aphid (GPA), foliar spray on infested cabbage seedlings; settings: Myzus persicae, foliar, 72 h
How it was run: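 Values are corrected % control, 100*(X−Y)/X, from live aphid counts per plant under a microscope, treated versus solvent-check plants. Four infested seedlings (20-50 GPA each) per treatment were sprayed to runoff and kept three days near 25° C at ambient RH.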

[2] = test system: Beet Armyworm (Spodoptera exigua) ("BAW"), second instar larvae; experiment: Bioassay on beet armyworm (BAW), 128-well diet tray assay; settings: Spodoptera exigua
How it was run: (§1)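 Sealed trays, 25° C., 14:10 light:dark, 5–7 d. Per-well % mortality recorded, mean of eight wells reported.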

[3] = test system: Cabbage Looper (Trichoplusia ni) ("CL"), second instar larvae; experiment: Bioassay on cabbage looper (CL), 128-well diet tray assay; settings: Trichoplusia ni
How it was run: as §1

[4] = read-out: GPA (Biological Results, rating)
[5] = read-out: BAW (Biological Results, rating)
[6] = read-out: CL (Biological Results, rating)

Row | SMILES | pest or weed control at 200 µg/mL [1, 4] [%] | pest or weed control at 50 µg/cm2 [2, 5] [%] | pest or weed control at 50 µg/cm2 [3, 6] [%] | pest or weed control at 200 µg/mL ([1]; read-out: GPA rating) [%] | pest or weed control at 50 µg/cm2 ([2]; read-out: BAW rating) [%] | pest or weed control at 50 µg/cm2 ([3]; read-out: CL rating) [%]
1 | CCc1cc(-c2ncn(-c3ccc(OC(F)(F)F)cc3)n2)ccc1NC(=O)/N=C1\SCC(=O)N1c1cc(C)ccc1OCCC(F)(F)F [Compound J73, (Z)-1-(2-Ethyl-4-(1-(4-(trifluoromethoxy)phenyl)-1H-1,2,4-triazol-3-yl)phenyl)-3-(3-(5-methyl-2-(3,3,3-trifluoropropoxy)phenyl)-4-oxothiazolidin-2-ylidene)urea] | 0 to 80 | 50 to 100 | 50 to 100 |  |  | 
2 | COc1ccc(C(C)C)c(N2C(=O)CS/C2=N\C(=O)Nc2ccc(-c3ncn(-c4cccc(C(F)(F)F)c4)n3)cc2F)c1 [Compound J152, (Z)-1-(2-Fluoro-4-(1-(3-(trifluoromethyl)phenyl)-1H-1,2,4-triazol-3-yl)phenyl)-3-(3-(2-isopropyl-5-methoxyphenyl)-4-oxothiazolidin-2-ylidene)urea] | 0 to 80 | 50 to 100 | 50 to 100 |  |  | 
3 | CN(C)c1ccc(OCC(F)(F)F)c(N2C(=O)CS/C2=N\C(=O)Nc2ccc(-c3ncn(-c4ccc(OC(F)(F)F)cc4)n3)cc2F)c1 [Compound J193, (Z)-1-(3-(5-(Dimethylamino)-2-(2,2,2-trifluoroethoxy)phenyl)-4-oxothiazolidin-2-ylidene)-3-(2-fluoro-4-(1-(4-(trifluoromethoxy)phenyl)-1H-1,2,4-triazol-3-yl)phenyl)urea] | 0 to 80 | 50 to 100 | 50 to 100 |  |  | 
4 | CC(C)c1ccc(N(C)C)cc1N1C(=O)CS/C1=N\C(=O)Nc1ccc(-c2ncn(-c3ccc(OC(F)(F)F)cc3)n2)cc1 [Compound J319, (Z)-1-(3-(5-(Dimethylamino)-2-isopropylphenyl)-4-oxothiazolidin-2-ylidene)-3-(4-(1-(4-(trifluoromethoxy)phenyl)-1H-1,2,4-triazol-3-yl)phenyl)urea] | 0 to 80 | 50 to 100 | 50 to 100 |  |  | 
5 | Cc1ccc(OCCC(F)(F)F)c(N2C(=O)CS/C2=N\C(=O)Nc2ccc(-c3ncn(-c4cccc(C(F)(F)F)c4)n3)cc2)c1 [Compound J326, (Z)-1-(3-(5-Methyl-2-(3,3,3-trifluoropropoxy)phenyl)-4-oxothiazolidin-2-ylidene)-3-(4-(1-(3-(trifluoromethyl)phenyl)-1H-1,2,4-triazol-3-yl)phenyl)urea] | 0 to 80 | 50 to 100 | 50 to 100 |  |  | 
6 | COC(c1ccc(C)cc1N1C(=O)CS/C1=N\C(=O)Nc1ccc(-c2ncn(-c3ccc(OC(F)(F)F)cc3)n2)cc1F)C(F)(F)F (stereo not drawn) [Compound J181, (Z)-1-(2-Fluoro-4-(1-(4-(trifluoromethoxy)phenyl)-1H-1,2,4-triazol-3-yl)phenyl)-3-(3-(5-methyl-2-(2,2,2-trifluoro-1-methoxyethyl)phenyl)-4-oxothiazolidin-2-ylidene)urea] | 0 to 80 | 50 to 100 | 50 to 100 |  |  | 
7 | Cc1ccc(COCC(F)(F)F)c(N2C(=O)CS/C2=N\C(=O)Nc2ccc(-c3ncn(-c4ccc(OC(F)(F)F)cc4)n3)cc2F)c1 [Compound J123, (Z)-1-(2-fluoro-4-(1-(4-(trifluoromethoxy)phenyl)-1H-1,2,4-triazol-3-yl)phenyl)-3-(3-(5-methyl-2-((2,2,2-trifluoroethoxy)methyl)phenyl)-4-oxothiazolidin-2-ylidene)urea] | 0 to 80 | 50 to 100 | 50 to 100 |  |  | 
8 | COc1ccc(-n2cnc(-c3ccc(NC(=O)/N=C4\SCC(=O)N4c4cc(OC)ccc4C(C)C)c(F)c3)n2)cc1 [Compound J145, (Z)-1-(2-Fluoro-4-(1-(4-methoxyphenyl)-1H-1,2,4-triazol-3-yl)phenyl)-3-(3-(2-isopropyl-5-methoxyphenyl)-4-oxothiazolidin-2-ylidene)urea] | 0 to 80 | 50 to 100 | 50 to 100 |  |  | 
9 | Cc1ccc(COCC(F)(F)F)c(N2C(=O)CS/C2=N\C(=O)Nc2ccc(-c3ncn(-c4ccc(C#N)cc4)n3)cc2F)c1 [Compound J289, (Z)-1-(4-(1-(4-Cyanophenyl)-1H-1,2,4-triazol-3-yl)-2-fluorophenyl)-3-(3-(5-methyl-2-((2,2,2-trifluoroethoxy)methyl)phenyl)-4-oxothiazolidin-2-ylidene)urea] | 0 to 80 | 50 to 100 | 50 to 100 |  |  | 
10 | Cc1ccc(OCCC(F)(F)F)c(N2C(=O)CS/C2=N\C(=O)Nc2ccc(-c3ncn(-c4ccc(OC(F)(F)F)cc4)n3)cc2F)c1 [Compound J35, (Z)-1-(2-Fluoro-4-(1-(4-(trifluoromethoxy)phenyl)-1H-1,2,4-triazol-3-yl)phenyl)-3-(3-(5-methyl-2-(3,3,3-trifluoropropoxy)phenyl)-4-oxothiazolidin-2-ylidene)urea] | 0 to 80 | 50 to 100 | 50 to 100 |  |  | 
11 | COc1ccc(C(C)C)c(N2C(=O)CS/C2=N\C(=O)Nc2ccc(-c3ncn(-c4cccc(OC(F)(F)F)c4)n3)cc2)c1 [Compound J328, (Z)-1-(3-(2-Isopropyl-5-methoxyphenyl)-4-oxothiazolidin-2-ylidene)-3-(4-(1-(3-(trifluoromethoxy)phenyl)-1H-1,2,4-triazol-3-yl)phenyl)urea] | 0 to 80 | 50 to 100 | 50 to 100 |  |  | 
12 | COc1ccc(C(C)C)c(N2C(=O)CS/C2=N\C(=O)Nc2ccc(-c3ncn(-c4ccc(OC(F)(F)F)cc4)n3)cc2F)c1 [Compound J312] | 0 to 80 | 50 to 100 | 50 to 100 |  |  | 
13 | COc1ccc(CC(F)(F)F)c(N2C(=O)CS/C2=N\C(=O)NCC(F)c2ccc(-c3ncn(-c4ccc(OC(F)(F)F)cc4)n3)cc2)c1 (stereo not drawn) [Compound H14] | 0 to 80 | 50 to 100 | 50 to 100 |  |  | 
14 | CC(=O)c1ccc(C(C)C)c(N2C(=O)CS/C2=N\C(=O)Nc2ccc(-c3ncn(-c4ccc(OC(F)(F)F)cc4)n3)cc2F)c1 [Compound J77, (Z)-1-(3-(5-Acetyl-2-isopropylphenyl)-4-oxothiazolidin-2-ylidene)-3-(2-fluoro-4-(1-(4-(trifluoromethoxy)phenyl)-1H-1,2,4-triazol-3-yl)phenyl)urea] | 0 to 80 | 50 to 100 | 50 to 100 |  |  | 
15 | COC(C)c1ccc(C#N)cc1N1C(=O)CS/C1=N\C(=O)Nc1ccc(-c2cn(-c3ccc(S(=O)(=O)C(F)(F)F)cc3)cn2)cc1F (stereo not drawn) [Compound J652, (Z)-1-(3-(5-Cyano-2-(1-methoxyethyl)phenyl)-4-oxothiazolidin-2-ylidene)-3-(2-fluoro-4-(1-(4-((trifluoromethyl)sulfonyl)phenyl)-1H-imidazol-4-yl)phenyl)urea] |  |  |  | 0 to 80 | 50 to 100 | 50 to 100
16 | CCc1cc(-c2ncn(-c3ccc(OC(F)(F)F)cc3)n2)ccc1NC(=O)/N=C1\SCC(=O)N1c1cc(C)ccc1COC [Compound J72, (Z)-1-(2-Ethyl-4-(1-(4-(trifluoromethoxy)phenyl)-1H-1,2,4-triazol-3-yl)phenyl)-3-(3-(2-(methoxymethyl)-5-methylphenyl)-4-oxothiazolidin-2-ylidene)urea] | 0 to 80 | 50 to 100 | 50 to 100 |  |  | 
